Laboratory results taken from patent US7699995B2, “Water treatment method” (priority 2006, dated 2010).
Values after ≈ are worked out from the molar mass of the structure shown.

Legend:
[1] = tested on: Mycobacterium chelonae (ATCC 14472); experiment: MBC test, transfer from MIC plates to fresh media; assay type: cell-based; conditions: M. chelonae, no survivors after 2 days in fresh media
Description: (§1) Bacterial strains tested included Mycobacterium chelonae (ATCC 14472) and Mycobacterium immunogenum (ATCC 700505). Mycobacterial cultures were grown overnight at 30° C. (M. immunogenum) or 37° C. (M. chelonae), in a rotary shaking bath in Middlebrook […] with Middlebrook enrichment. A 1:20 dilution of the overnight culture was made into the appropriate test media and inoculated to give a final concentration of 10^6 to 10^7 CFU/ml.
(§2) MBC tests were conducted by transferring samples from the MIC test samples into fresh media and observing for growth of the culture. Growth was determined as above. In this test using Biomek 2000 Workstation, 10 μl samples taken from the 96-well MIC plates were placed in […] of fresh growth media to determine the number of surviving organisms for the same gradient of biocide concentrations. These plates were incubated and read in the same fashion as the MIC plates.

[2] = tested on: Mycobacterium immunogenum (ATCC 700505); experiment: MBC test, transfer from MIC plates to fresh media; assay type: cell-based; conditions: M. immunogenum, no survivors after 2 days in fresh media
Description: as §1, §2

[3] = Stability in buffered water at various pH and temperatures (HPLC); assay type: physicochemical
Description: Biocides were added to buffer solutions and stability was tested at 22° and 50° C. using HPLC to measure biocide concentration at 0 time, 21 days, 43 days, and 88-90 days. Biocide stability was determined in the following buffer solutions: pH2, 0.01M HCl; pH6, 0.1M KH2PO4; pH8, 0.025M borate; pH10, 0.025M borate; pH12, 0.05M Na2HPO4. Biocide concentrations tested were 100 ppm MI, 200 ppm BIT, 44 ppm CMI.

Proteus mirabilis = experiment: MIC, bacteria, TSB pH 7; assay type: cell-based; conditions: 48 h
Description: (§3) Minimum inhibitory concentration (MIC) studies were conducted to determine the lowest level of biocide required to inhibit growth of bacteria and fungi. Tests were conducted in 96-well microtiter plates. Biocides were added to growth media in the plates and serially diluted to obtain a range of concentrations. Bacterial tests were conducted in trypticase soy broth (TSB; pH 7) using an overnight inoculum added at 10^6 colony forming units per ml. […] Fungal tests were conducted in malt extract broth (MEB; pH 4.7) using an 5-7 day inoculum added at 10^4 colony forming units per ml.

Pseudomonas fluorescens = experiment: MIC, bacteria, TSB pH 7; assay type: cell-based; conditions: 48 h, TSB pH 7, 25° C., two days
Description: as §3

Pseudomonas oleovorans = experiment: MIC, bacteria, TSB pH 7; assay type: cell-based
Description: as §3

bacteria and fungi = experiment: MIC pH 9.0 versus pH 7.1, all nine organisms; assay type: cell-based; conditions: over the nine organisms tested
Description: Minimum inhibitory concentration (MIC) studies were conducted to determine the lowest level of biocide required to inhibit growth of bacteria and fungi. Tests were conducted in 96-well microtiter plates. Biocides were added to growth media in the plates and serially diluted to obtain a range of concentrations. Tests were conducted in one-half strength trypticase soy broth (TSB; adjusted to pH 7.1 or pH 9.0). Bacteria and fungi were added to samples at 10^6 colony forming units per ml and incubated at 30° C. for three days. MIC values were determined visually on a growth no-growth basis.

[4] = tested on: Mycobacterium chelonae (ATCC 14472); experiment: High resolution MIC test, pure culture, 1/10x TSB; assay type: cell-based; conditions: M. chelonae, 24 hours at 37° C.
Description: (§4) The lowest concentration of microbicide required to inhibit bacteria was determined by a high resolution MIC test. Varying amounts of each microbicide were added to media in a 96-well microtiter plate. The media used for the MIC tests was 10% Trypicase Soy Broth ( 1/10× TSB). […] serial dilutions were performed on a Biomek 2000 Workstation to obtain a range of closely spaced concentrations of microbicides. A cell suspension of stationary phase microorganisms, adjusted to provide 10^6 colony forming units (CFU)/mL in each well for bacteria was added to the microtiter plate. The microtiter plates were incubated for 24 hours at 30° C. for Mycobacterium immunogenum and 37° C. for Mycobacterium chelonae. The presence or absence of microbial growth was determined by measuring the turbidity in each well using a Thermomax microplate reader set at an absorbance of 650 nm. The lowest concentration of compound in which no growth was observed was considered the MIC value for the microbicide. The MIC value for each microbicide was determined from the average of four determinations for bacteria.
as §1

[5] = tested on: Mycobacterium immunogenum (ATCC 700505); experiment: High resolution MIC test, pure culture, 1/10x TSB; assay type: cell-based; conditions: M. immunogenum, 24 hours at 30° C.
Description: as §4, §1

Fungi = experiment: MIC, average over fungi; assay type: cell-based
Description: as §3

[6] = Stability in high pH metalworking fluid use dilutions (HPLC); assay type: physicochemical; conditions: for % MIT Remaining: 25° C.
Description: Stability studies were conducted in three high pH metalworking fluid use dilutions to compare the persistence of MIT biocide versus CMIT biocide, tested alone and in combination with MCC). Aliquots of the use-diluted fluids were dosed with 17.5 ppm active CMIT/MIT and CMIT/MIT/MCC and stored at 25° C. Biocide concentrations were determined at time zero and weekly using high performance liquid chromatography (HPLC) analysis.

Cn1sccc1=O [MI, 2-methyl-4-isothiazolin-3-one]
Minimum Biocidal Concentration [1]: 40 ppm active
Minimum Biocidal Concentration [2]: 84 ppm active
Percent Remaining at: pH 2 ([3]; 22° C., day 0): 100%
Percent Remaining at: pH 6 ([3]; 22° C., day 0): 100%
Percent Remaining at: pH 8 ([3]; 22° C., day 0): 100%
Percent Remaining at: pH 10 ([3]; 22° C., day 0): 100%
Percent Remaining at: pH 12 ([3]; 22° C., day 0): 100%
Percent Remaining at: pH 2 ([3]; 22° C., day 21): 104%
Percent Remaining at: pH 6 ([3]; 22° C., day 21): 100%
Percent Remaining at: pH 8 ([3]; 22° C., day 21): 100%
Percent Remaining at: pH 10 ([3]; 22° C., day 21): 100%
Percent Remaining at: pH 12 ([3]; 22° C., day 21): 98%
Percent Remaining at: pH 2 ([3]; 22° C., day 43): 98%
Percent Remaining at: pH 6 ([3]; 22° C., day 43): 94%
Percent Remaining at: pH 8 ([3]; 22° C., day 43): 95%
Percent Remaining at: pH 10 ([3]; 22° C., day 43): 89%
Percent Remaining at: pH 12 ([3]; 22° C., day 43): 93%
Percent Remaining at: pH 2 ([3]; 22° C., day 88): 100%
Percent Remaining at: pH 6 ([3]; 22° C., day 88): 100%
Percent Remaining at: pH 8 ([3]; 22° C., day 88): 100%
Percent Remaining at: pH 10 ([3]; 22° C., day 88): 100%
Percent Remaining at: pH 12 ([3]; 22° C., day 88): 100%
Percent Remaining at: pH 2 ([3]; 50° C., day 0): 100%
Percent Remaining at: pH 6 ([3]; 50° C., day 0): 100%
Percent Remaining at: pH 8 ([3]; 50° C., day 0): 100%
Percent Remaining at: pH 10 ([3]; 50° C., day 0): 100%
Percent Remaining at: pH 12 ([3]; 50° C., day 0): 100%
Percent Remaining at: pH 2 ([3]; 50° C., day 21): 100%
Percent Remaining at: pH 6 ([3]; 50° C., day 21): 98%
Percent Remaining at: pH 8 ([3]; 50° C., day 21): 100%
Percent Remaining at: pH 10 ([3]; 50° C., day 21): 98%
Percent Remaining at: pH 12 ([3]; 50° C., day 21): 90%
Percent Remaining at: pH 2 ([3]; 50° C., day 43): 97%
Percent Remaining at: pH 6 ([3]; 50° C., day 43): 93%
Percent Remaining at: pH 8 ([3]; 50° C., day 43): 95%
Percent Remaining at: pH 10 ([3]; 50° C., day 43): 93%
Percent Remaining at: pH 12 ([3]; 50° C., day 43): 78%
Percent Remaining at: pH 2 ([3]; 50° C., day 90): 100%
Percent Remaining at: pH 6 ([3]; 50° C., day 90): 100%
Percent Remaining at: pH 8 ([3]; 50° C., day 90): 100%
Percent Remaining at: pH 10 ([3]; 50° C., day 90): 100%
Percent Remaining at: pH 12 ([3]; 50° C., day 90): 76%
MIC (Proteus mirabilis): 21 µg/mL (≈ 182 µM)
MIC (Pseudomonas fluorescens; first listed): 31 µg/mL (≈ 269 µM)
MIC (Pseudomonas fluorescens; second listed): 16 µg/mL (≈ 139 µM)
MIC (Pseudomonas oleovorans; Ectopseudomonas oleovorans, 48 h, pH 7): 6 µg/mL (≈ 52.1 µM)
MIC (Pseudomonas oleovorans; Pseudomonas oleovorans, second listed, TSB pH 7, 25° C., two days): 6 ppm
change of MIC at pH 9.0 versus pH 7.1 (bacteria and fungi): ≤ 2 ×
Minimum Inhibitory Concentration [4]: 15 ppm active
Minimum Inhibitory Concentration [5]: 50 ppm active
MI: CMI + MI MIC Ratio (Fungi; fungi, ratio of average MICs): 46.8
MIC (Fungi; read-out: MIC, Average): 63 µg/mL (≈ 547 µM)
% MIT Remaining ([6]; Soluble Fluid 1 (pH 9.2), 2 wk): 95%
% MIT Remaining ([6]; Soluble Fluid 1 (pH 9.2), 4 wk): 100%
% MIT Remaining ([6]; Soluble Fluid 3 (pH 9.3), 2 wk): 95%
% MIT Remaining ([6]; Soluble Fluid 3 (pH 9.3), 4 wk): 100%
% MIT Remaining ([6]; Synthetic Fluid 2 (pH 9.4), 1 wk): 92%
% MIT Remaining ([6]; Synthetic Fluid 2 (pH 9.4), 3 wk): 94%
biocide active retained ([6]; after 3-4 weeks in all three high pH use-diluted fluids): greater than 90%

O=c1[nH]sc2ccccc12 [BIT, 1,2-benzisothiazolin-3-one, reference compound]
Minimum Biocidal Concentration [1]: 75 ppm active
Minimum Biocidal Concentration [2]: 188 ppm active
Percent Remaining at: pH 2 ([3]; 22° C., day 0): 100%
Percent Remaining at: pH 6 ([3]; 22° C., day 0): 100%
Percent Remaining at: pH 8 ([3]; 22° C., day 0): 100%
Percent Remaining at: pH 10 ([3]; 22° C., day 0): 100%
Percent Remaining at: pH 12 ([3]; 22° C., day 0): 100%
Percent Remaining at: pH 2 ([3]; 22° C., day 21): 97%
Percent Remaining at: pH 6 ([3]; 22° C., day 21): 100%
Percent Remaining at: pH 8 ([3]; 22° C., day 21): 98%
Percent Remaining at: pH 10 ([3]; 22° C., day 21): 100%
Percent Remaining at: pH 12 ([3]; 22° C., day 21): 69%
Percent Remaining at: pH 2 ([3]; 22° C., day 43): 83%
Percent Remaining at: pH 6 ([3]; 22° C., day 43): 86%
Percent Remaining at: pH 8 ([3]; 22° C., day 43): 77%
Percent Remaining at: pH 10 ([3]; 22° C., day 43): 85%
Percent Remaining at: pH 12 ([3]; 22° C., day 43): 55%
Percent Remaining at: pH 2 ([3]; 22° C., day 88): 95%
Percent Remaining at: pH 6 ([3]; 22° C., day 88): 100%
Percent Remaining at: pH 8 ([3]; 22° C., day 88): 84%
Percent Remaining at: pH 10 ([3]; 22° C., day 88): 96%
Percent Remaining at: pH 12 ([3]; 22° C., day 88): 63%
Percent Remaining at: pH 2 ([3]; 50° C., day 0): 100%
Percent Remaining at: pH 6 ([3]; 50° C., day 0): 100%
Percent Remaining at: pH 8 ([3]; 50° C., day 0): 100%
Percent Remaining at: pH 10 ([3]; 50° C., day 0): 100%
Percent Remaining at: pH 12 ([3]; 50° C., day 0): 100%
Percent Remaining at: pH 2 ([3]; 50° C., day 21): 95%
Percent Remaining at: pH 6 ([3]; 50° C., day 21): 100%
Percent Remaining at: pH 8 ([3]; 50° C., day 21): 94%
Percent Remaining at: pH 10 ([3]; 50° C., day 21): 100%
Percent Remaining at: pH 12 ([3]; 50° C., day 21): 68%
Percent Remaining at: pH 2 ([3]; 50° C., day 43): 80%
Percent Remaining at: pH 6 ([3]; 50° C., day 43): 88%
Percent Remaining at: pH 8 ([3]; 50° C., day 43): 73%
Percent Remaining at: pH 10 ([3]; 50° C., day 43): 81%
Percent Remaining at: pH 12 ([3]; 50° C., day 43): 55%
Percent Remaining at: pH 2 ([3]; 50° C., day 90): 93%
Percent Remaining at: pH 6 ([3]; 50° C., day 90): 100%
Percent Remaining at: pH 8 ([3]; 50° C., day 90): 89%
Percent Remaining at: pH 10 ([3]; 50° C., day 90): 95%
Percent Remaining at: pH 12 ([3]; 50° C., day 90): 68%
Minimum Inhibitory Concentration [4]: 63 ppm active
Minimum Inhibitory Concentration [5]: 113 ppm active
